Source: patent US20230212202A1, “TREATMENT OF MGMT DEFICIENT CANCER WITH 2-FLUOROETHYL-SUBSTITUTED NITROSOUREAS AND OTHER COMPOUNDS” (YALE UNIVERSITY, priority 2021, published 2023)

Legend:
[1] = Maximum tolerated dose study in healthy mice; type: in vivo, mouse
Experimental: Healthy mice were treated with escalating doses of KL-50 (4a) (0, 25, 50, 100, and 200 mg/kg × 1 dose), and monitored over time for changes in both weights and hematologic profiles. Mice in the higher dosage groups (100 or 200 mg/kg) experienced a greater than 10% weight loss after treatment administration, which regressed to baseline at the end of one week (FIG. 6B). […] As the main dose limiting systemic toxicity of TMZ (1a) is myelosuppression, complete blood counts were measured for all mice on day 0 before treatment and subsequently on day 7 after drug administration.

[2] = tested on: LN229 MGMT+/-, MMR+/- cells; assay: Micronuclei analysis; type: cell-based, human; conditions: 20 µM, 48 h
Description: Micronuclei Analysis. An automated image analysis pipeline was developed by YCMD using InCell Analyzer software to quantify micronuclei formation. Nuclei and micronuclei were segmented based on Hoechst nucleic acid dye staining channel. A perinuclear margin was applied around the nuclei to approximate the extent of the cytoplasm and identify micronuclei associated with the parent nucleus. Cells with nuclei associated with at least 1 micronucleus were considered positive.

[3] = tested on: γH2AX, 53BP1 and pRPA foci in LN229 MGMT+/-, MMR+/- cells; assay: Immunofluorescence foci assays; type: cell-based, human; conditions: 20 µM
Experimental: Immunofluorescence Foci Assays. High-throughput immunofluorescence foci assays were performed at the Yale Center for Molecular Discovery (YCMD). Cells were seeded at 2000 cells/well in black polystyrene flat bottom 384-well plates (Greiner Bio-One) and allowed to adhere overnight. Compound addition was performed utilizing a Labcyte Echo 550 liquid handler (Beckman Coulter), with 6 replicates per test condition and 12 replicates per control condition. Following drug incubation, cells were fixed and stained for phospho-SER139-H2AX (yH2AX), 53BP1, or phospho-SER33-RPA2 (pRPA) as follows.
γH2AX protocol: Cells were fixed with 4% paraformaldehyde in 1X PBS for 15 min, washed twice with 1X PBS, incubated in extraction buffer (0.5% Triton X-100 in 1X PBS) for 10 min, washed twice with 1X PBS, and incubated in blocking buffer (Blocker Casein in PBS, Thermo Scientific + 5% goat serum, Life Technologies) for 1 h. Mouse anti-phospho-histone H2A.X (Ser139) antibody (clone JBW301, Millipore, 05-636) was added 1/1000 in blocking buffer at 4° C. overnight. After washing with 1X PBS, cells were incubated with goat anti-mouse IgG (H+L) highly cross-adsorbed secondary antibody, Alexa Fluor 647 (Invitrogen, A-21236) 1/500 and with 1 µg/mL Hoechst nucleic acid dye in blocking buffer for 2 h, and then washed with 1X PBS. […]

[4] = tested on: LN229 MGMT-/MMR- intracranial tumors; assay: Intracranial tumor model; type: in vivo, mouse; conditions: 25 mg/kg IP M-F × 1 week
[5] = tested on: LN229 MGMT-/MMR+ and MGMT-/MSH6- flank tumors; assay: Flank tumor third study: large tumors; type: in vivo, mouse; conditions: 25 mg/kg PO MWF × 3 weeks, ~350-400 mm^3 tumors
Experimental: The third study involved MGMT-/MMR+ and MGMT-/MSH6- (shMSH6) LN229 cells. Mice tumors were allowed to grow to a larger average starting volume of ~350 mm^3 before they were randomized and administered either KL-50 (4a; 25 mg/kg MWF × 3 weeks) or vehicle (10% cyclodextrin) by oral gavage. Caliper measurements were obtained during the dosing period and at least two weeks following treatment. Mice were euthanized if body weight loss exceeded 20% or if tumor volume increased to greater than 3000 mm^3.

LN229 MGMT-/MMR- cells = assay: IR alkaline comet assay; type: cell-based, human; conditions: 200 µM, 2-24 h
[6] = tested on: linearized pUC19 plasmid DNA; assay: Melting temperature assay; type: biochemical; conditions: 100 or 500 µM, 3 h
[7] = tested on: LN229 MGMT+/-, MMR+/- cells; assay: Short-term cell viability assay, four isogenic LN229 glioblastoma cell lines; type: cell-based, human
[8] = tested on: DLD1 MSH6-deficient cells; assay: Short-term viability assay with or without O6BG; type: cell-based, human; conditions: with or without O6BG-induced MGMT depletion
Description: (§1) Short-term Cell Viability Assay.

[9] = tested on: HCT116 MLH1-/- cells or HCT116 +Chr3 cells; assay: Short-term viability assay with or without O6BG; type: cell-based, human
Description: as §1

NC(=O)c1ncn2c(=O)n(CCF)nnc12 [KL-50]
tolerability ([1]; 0, 25, 50, 100, 200 mg/kg × 1 dose): well-tolerated
mice observably ill warranting euthanasia ([1]; 200 mg/kg): Two of three mice
weight loss after treatment administration ([1]; 100 or 200 mg/kg, regressed to baseline at one week): greater than 10%
complete blood counts ([1]; day 7, all cohorts): within normal physiological ranges
micronuclei formation [2]: significant increase in micronuclei
γH2AX, 53BP1, pRPA foci formation ([3]; 2 to 48 h): maximal foci response at 48 h, specifically in MGMT- cells and irrespective of MMR status
DDR foci across cell cycle phases ([3]; 48 h): foci formation primarily in the S- and G2-phases
intracranial tumor growth [4]: effective
growth of large tumors [5]: potently suppressed the growth
DNA damage in unirradiated samples, time course (LN229 MGMT-/MMR- cells; 0 Gy): maximal damage at 2 h
DNA mobility after IR, time course (LN229 MGMT-/MMR- cells; 10 Gy): time-dependent decrease in DNA mobility
DNA melting temperature [6]: comparable changes in measured DNA melting temperature
activity in the four LN229 cell lines [7]: mirrored that of 4b
rescue of toxicity by ROS scavenger NAC [7]: did not result in rescue
selectivity for MGMT-deficient cells ([7]; LN229): ~ 25 fold
activity in DLD1 cells [8]: toxic to these cells, but only after O^6BG-induced MGMT depletion
activity in HCT116 cells [9]: selective tumor cell killing specifically in the setting of O^6BG-induced MGMT suppression
